Laboratory results reported in US4347319A, “Microbiological epoxidation process” (priority 1980, dated 1982).
Where two headings read alike, the source gives them in different places.

Legend:
[1] = tested on: Methylobacter vinelandii (CRL M5Y) NRRL B-11,218; experiment: Oxidation by washed cell suspensions of methane-grown cells; assay type: cell-based; details: for Oxidative Conversion Rates: methane-grown washed cells, 30° C., methane to methanol, alkene to 1,2-epoxide
Procedure, shortened: (§1)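 Methane/air (1:1)-grown cells, 30 °C, 2 d; harvested, washed 2× in 0.15 M phosphate pH 7.0 + 0.002 M MgCl2. 2 mg cells/vial, gas phase substrate:O2 1:1 v/v, 30 °C, 300 rpm. GC-FID read-out over time.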

[2] = tested on: Methylobacter chroococcum (CRL 23 PM8) NRRL B-11,215; experiment: as above; assay type: cell-based
Procedure, shortened: as §1

[3] = tested on: Methylobacter bovis (CRL 19 PM5) NRRL B-11,217; experiment: as above; assay type: cell-based
Procedure, shortened: as §1

[4] = tested on: Methylomonas albus (CRL M8Y) NRRL B-11,207; experiment: as above; assay type: cell-based
Procedure, shortened: as §1

[5] = molecular target: T1, cell fractions of Methylosinus trichosporium (OB3b, NRRL B-11,196) (Methylosinus trichosporium, UniProt Q50541+Q9KX50+Q9KX51); assay type: biochemical; details: for Conversion Rate: particulate P(40) fraction, n-propane to 2-propanol, n-butane to 2-butanol; for Oxidizing Activity (rate of oxidation) in cell fraction: propylene to propylene oxide, methane to methanol, 30° C.; for % Distribution in Cell Fraction: propylene-epoxidizing / methane-hydroxylating activity
T1 sequence (Q9KX50 40-431): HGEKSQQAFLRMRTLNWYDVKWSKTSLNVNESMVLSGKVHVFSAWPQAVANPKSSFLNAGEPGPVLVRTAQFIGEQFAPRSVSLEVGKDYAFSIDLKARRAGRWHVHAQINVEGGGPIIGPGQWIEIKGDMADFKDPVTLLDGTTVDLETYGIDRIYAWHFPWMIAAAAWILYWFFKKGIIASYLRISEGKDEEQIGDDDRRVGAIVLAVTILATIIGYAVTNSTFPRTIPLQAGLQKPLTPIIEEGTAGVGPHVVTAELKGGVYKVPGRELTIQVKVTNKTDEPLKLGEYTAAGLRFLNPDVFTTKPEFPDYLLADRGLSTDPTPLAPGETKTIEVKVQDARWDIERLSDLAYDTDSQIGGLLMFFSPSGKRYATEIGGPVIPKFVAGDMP
T1 sequence (Q50541 1-252): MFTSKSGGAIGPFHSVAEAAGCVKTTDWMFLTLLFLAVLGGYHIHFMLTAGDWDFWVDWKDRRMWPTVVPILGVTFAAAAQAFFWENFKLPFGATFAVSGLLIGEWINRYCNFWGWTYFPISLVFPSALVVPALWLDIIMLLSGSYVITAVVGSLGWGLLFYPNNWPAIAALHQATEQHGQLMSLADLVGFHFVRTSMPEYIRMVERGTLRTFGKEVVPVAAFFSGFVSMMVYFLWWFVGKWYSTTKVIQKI
T1 sequence (Q9KX51 1-256): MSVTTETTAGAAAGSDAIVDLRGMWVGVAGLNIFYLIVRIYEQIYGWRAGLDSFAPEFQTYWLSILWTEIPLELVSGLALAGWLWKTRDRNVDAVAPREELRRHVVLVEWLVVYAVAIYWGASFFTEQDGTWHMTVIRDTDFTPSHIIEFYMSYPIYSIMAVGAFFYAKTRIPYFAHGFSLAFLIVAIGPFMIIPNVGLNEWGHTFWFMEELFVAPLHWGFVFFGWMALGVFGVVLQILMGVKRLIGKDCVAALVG
Procedure: Cells were washed twice with 25 mM potassium phosphate buffer, pH 7.0 containing 5 mM MgCl2. Cells were suspended in the same buffer. The cell suspensions at 4° C. were disintegrated by a single passage through a French Pressure cell (15,000 lb./in.^2) and centrifuged at 5000×g. for 15 min. to remove unbroken bacteria. The supernatant solution (crude extract) was then centrifuged at 40,000×g. for 30 min., yielding particulate P(40) and soluble S(40) fractions. The S(40) fraction was subsequently centrifuged at 80,000×g. for 60 min., yielding particulate P(80) and soluble S(80) fractions. The particulate fractions [P(40) and P(80)] were suspended in 25 mM potassium phosphate buffer, pH 7.0, containing 5 mM MgCl2 and homogenized at 4° C.
The oxidation of methane and propylene by particulate [(P)40 and (P)80] fractions and soluble [S(80)] fraction was measured at 30° C. by estimating the production of methanol and propylene oxide, respectively. The reaction mixtures contained in […]: 150 mM potassium phosphate buffer, pH 7.0 containing 5 mM MgCl2 b, 0.6 ml; 10μ moles NADH, and cellular fraction.
Reaction mixtures were contained in 10 ml vials at 4° C. Vials were sealed with rubber caps. The gaseous phase in the vials was removed using vacuum and then was replaced with a gas mixture of methane or propylene and oxygen at a 1:1, v/v ratio. Oxidation of other gaseous n-alkanes and n-alkanes was examined as described above. For liquid substrates, 10 μl of substrate was used directly.
The products of epoxidation of n-alkenes and hydroxylation of n-alkanes were assayed by flame ionization gas chromatography using a stainless steel column (12'×1/8") packed with 10% Carbowax 20 M on 80/100 Chromosorb W and Porapak Q column. The column temperature was maintained isothermally at 120° C. The carrier gas flow rate was 30 ml/min. of helium. The various products were identified by retention time comparisons and co-chromatography with authentic standards.
Specific activities were expressed as μ moles of products formed per hour per mg. protein. Concentrations of protein in various fractions were determined by the method of Lowry et al., J. Biol. Chem., 193: 265-275 (1951).

[6] = tested on: Methylomonas rubrum (CRL 20 PM6) NRRL B-11,211; experiment: Oxidation by washed cell suspensions of methane-grown cells; assay type: cell-based; details: for Oxidative Conversion Rates: methane-grown washed cells, 30° C., methane to methanol, alkene to 1,2-epoxide
Procedure, shortened: as §1

[7] = methane-grown cells, 2-butanol to 2-butanone
[8] = methane-grown washed cells, 30° C., methane to methanol, alkene to 1,2-epoxide

Compound | Oxidative Conversion Rates [2, 8] | Oxidative Conversion Rates [3, 8] | Oxidative Conversion Rates [4, 8] | Conversion Rate [5] | Oxidative Conversion Rates [6] | Oxidative Conversion Rates [1] | Oxidizing Activity (rate of oxidation) in cell fraction ([5]; P(40)) | % Distribution in Cell Fraction ([5]; P(40)) | Oxidizing Activity (rate of oxidation) in cell fraction ([5]; P(80)) | % Distribution in Cell Fraction ([5]; P(80)) | other results
CCC(C)O (centres unmarked) [2-Butanol] | – | – | – | – | – | – | – | – | – | – | Conversion Rate to Ketone, 2 hrs. [1, 7]: 2 μmole/2 mg protein; Conversion Rate to Ketone, 20 hrs. [1, 7]: 18 μmole/2 mg protein
C=CC=C [Butadiene] | 1.8 μmole/hr/mg protein | 2.3 μmole/hr/mg protein | 3.0 μmole/hr/mg protein | – | – | – | – | – | – | – | –
CCCC [Butane] | – | – | – | 0.79 μmoles/hr/2.0mg. of protein | – | – | – | – | – | – | –
C [Methane] | – | – | – | – | 0.42 μmole/hr/mg protein | 0.9 μmole/hr/mg protein | 3.1 μ moles of products formed per | 83% | 3.0 μ moles of products formed per | 13% | Oxidative Conversion Rates [2]: 0.72; Oxidative Conversion Rates [3]: 2.0; Oxidative Conversion Rates [4]: 1.5
CCC [Propane] | – | – | – | 1.32 μmoles/hr/2.0mg. of protein | – | – | – | – | – | – | Conversion Rate to Ketone ([6]; methane-grown cells, propane to acetone): 3.5 μmoles/hr/mg Protein
C=CC [Propylene] | 2.5 μmole/hr/mg protein | 2.2 μmole/hr/mg protein | 2.5 μmole/hr/mg protein | – | 1.9 μmole/hr/mg protein | 1.9 μmole/hr/mg protein | 2.8 μ moles of products formed per | 82% | 2.5 μ moles of products formed per | 18% | –
